Values after ≈ are worked out from the molar mass of the structure shown. Read-outs that look alike come from different tables or passages of the source.

The test system of one data set is Lovo cells. Put plainly: Cytotoxicity assay (MTS/MTT), growth inhibition of Lovo cells. The data set is classed as cell-based, human. The note with it: concentration of 1 μM. The protocol:
LOVO: human colon cancer cell strains;
(§1) Cells were seeded into RPMI 1640 cell culture solution containing 10% fetal bovine serum (100 ku/L of penicillin and 100 ku/L of streptomycin were supplemented). The culture dish was placed in a cell incubator containing 5% CO2 at 37° C. The culture solution was changed once every 2-3 days. Cells were digested with 0.25% trypsin liquid, passaged and collected.
(§2) Cells during the logarithmic growth phase were formulated into a cell suspension having a desired concentration with RPMI 1640 cell culture solution containing 10% fetal bovine serum. The cell suspension was added onto 96 well cell culture plate at 3000-5000 per well (100 μl). After incubating for 24 hours, 100 μl of the test substances with different concentration was added per well. There were four parallel wells for each concentration in this plate. After incubating for 72 to 120 hours, the supernatant was discarded. To each well was added 100 μl of new formulated 0.5 mg/ml MTT serum-free culture solution. After incubating for 4 hours at 37° C., the supernatant was discarded. Formazane was dissolved with 200 μl DMSO. After slightly oscillating for 15 min, absorbance values (OD value) at the detective wavelength of 570 nm and the reference wavelength of 450 nm were determined with enzyme labeling instrument.
(§3) Data was represented by x±s. The inhibition rate=(OD value of the control group−OD value of the administration group)/OD value of the control group×100%. The maximum inhibition rate Imax and the half effective concentration (IC50) represent the anticancer effects. Figures were drawn with MicroCal Origin software. The inhibition curve of the test substance to the growth of tumor cells was fitted by Four Parameters Logistic Program of the software. The half effective concentration (IC50: μg/ml) for inhibiting the proliferation of tumor cells was calculated.
(§4) The exposure concentrations of the test substance were 0.001 μg/ml, 0.003 μg/ml, 0.009 μg/ml, 0.027 μg/ml, 0.082 μg/ml, 0.247 μg/ml, 0.741 μg/ml, 2.222 μg/ml, 6.667 μg/ml and 20 μg/ml. The exposure concentrations of doxorubicin (positive drug) were 1.25 μg/ml, 5 μg/ml, 20 μg/ml. In a 96-well plate, 3000-5000 cells were inoculated in each well and there were four parallel wells for each concentration. Table 1 lists the growth inhibition rate of the compounds against Lovo cells at concentration of 1 μM. Table 3 lists the inhibition rate of the compounds against the hyperplasia of MCF-7 human breast cancer cells at various concentrations.

For data set [1] the following is noted: folds of doxorubicin; cited from earlier work.
In a further data set the test system is transplanted tumor. The note with it: transplanted tumor in mice; cited from earlier work.
The test system of data set [2] is MCF-7 human breast cancer cells. Put plainly: Cytotoxicity assay (MTS/MTT), MCF-7 cells. Format: cell-based. Conditions: for EC50: read-out: Half-Inhibitory Concentration of Cells Growth (EC50), MCF-7 cell. The protocol: MCF-7: human breast cancer cell strains;
as §1, §2, §3, §4

A further data set relates to HCT-8 cell. Kind of data set: Cytotoxicity assay (MTS/MTT), HCT-8 cells. The data set is classed as cell-based, human. The note with it: read-out: Half-Inhibitory Concentration of Cells Growth (EC50), HCT-8 cell. The protocol:
HCT-8: human colon cancer cell strains;
as §1, §2, §3, §4

The next data set concerns HEPG-2. Put plainly: Cytotoxicity assay (MTS/MTT), HEPG-2 cells. Format: cell-based, human. The note with it: read-out: Half-Inhibitory Concentration of Cells Growth (EC50), HEPG-2. The protocol: HEPG-2: human liver cancer cell strains;
as §1, §2, §3, §4

The next data set concerns A549 cell. Kind of data set: Cytotoxicity assay (MTS/MTT), A549 cells. The note with it: read-out: Half-Inhibitory Concentration of Cells Growth (EC50), A549 cell. The data set is classed as cell-based, human. The protocol:
A549: human lung cancer cell strains;
as §1, §2, §3, §4

The subject of data set [3] is Kunming white mice. The note with it: reference value given in the conclusion; cited from earlier work.
The test system of data set [4] is Kunming white mice. Put plainly: In vivo MTD test in mice. The note with it: for Abnormality on the body surface / Change of body weight / Mortality rate: tail vein injection. The protocol: Experiment purpose: preliminary investigation on in vivo toxicity of the compound in Example 1 in mice
Experiment animal: Kunming white mice 20±2 g, purchased from the animal housing in Institute of Radiation Medicine, Chinese Academy of Medical Sciences. Animal license No.: SCXK(JIN)2005-0001.
Preparation of drug solution: After the drug was vortexed to dissolve with 0.5% (V/V) of DMSO, 5% (V/V) of RH40 (ethoxylated hydrogenated castor oil) was added. After mixing with vortex, the volume was determined with normal saline.
(1) Single administration: Nine healthy Kunming male white mice, of which the body weights are 20±2 g, were divided into three groups: 2 mice belong to the control group; 6 mice belong to 20 mg/kg group; 1 mouse belongs to 30 mg/kg group. 20 mg/kg and 30 mg/kg of the compound in Example 1 were administrated once via tail vein injection to the mice in the administration group. The same volume of a solvent was administrated as control to the mice in the control group. After administration, conditions such as action, reflex, locomotor activity and the like of the mice were observed within one hour. Subsequently, the body weights of the mice were recorded every day. Having observed for 14 days after drug withdrawal, the mice were anatomized to observe whether their main organs have an obvious abnormality.
(2) Multiple administrations: Twelve healthy Kunming white mice including six male mice and six female mice, of which the body weights are 20±2 g, were divided into two groups: […]. 10 mg/kg of the test drug was administrated once every three days via tail vein injection to the mice in the administration group. The same volume of a solvent was administrated as the control to the mice in the control group. The mice in each group were administrated five times. After each administration, conditions such as action, reflex, locomotor activity and the like of the mice were observed within one hour. The body weights of mice were recorded every day. Having been fed normally for one week after drug withdrawal, the mice were anatomized to observe whether their main organs have an obvious abnormality.

[5] abbreviates: MCF-7, compound concentration 0.001 μg/ml.
The mark [6] stands for this setting: MCF-7, compound concentration 0.003 μg/ml.
The mark [7] stands for this setting: MCF-7, compound concentration 0.009 μg/ml.
The mark [8] stands for this setting: MCF-7, compound concentration 0.027 μg/ml.
The mark [9] stands for this setting: MCF-7, compound concentration 0.082 μg/ml.
[10] abbreviates: MCF-7, compound concentration 0.247 μg/ml.
[11] abbreviates: MCF-7, compound concentration 0.741 μg/ml.
[12] abbreviates: MCF-7, compound concentration 2.222 μg/ml.
The mark [13] stands for this setting: MCF-7, compound concentration 6.667 μg/ml.
Setting [14] is: MCF-7, compound concentration 20 μg/ml.
[15] abbreviates: multiple administrations, 10 mg/kg once every three days, five times.
Where [16] appears, read: single administration, 20 mg/kg and 30 mg/kg.

Consider “3′-pyrrolyl-4′-(pyran-2-yl)doxorubicin [Example 6]”, for which the “Growth Inhibition Rate (%)” value with Lovo cells turned out to be 90.94%.

In the case of “3′-pyrrolyl-5-iminodaunomycin [Example 2]”, the “Growth Inhibition Rate (%)” value in the data set on Lovo cells is listed as 74.0%.

3′-pyrrolyl-esorubicin [Example 4]: the “Growth Inhibition Rate (%)” value with Lovo cells amounted to 40.71%.

Consider 3′-pyrrolyl-idarubicin [Example 3], for which the “Growth Inhibition Rate (%)” value in the data set with Lovo cells is 88.9%.

For `COc1cccc2c1C(=O)c1c(O)c3c(c(O)c1C2=O)C[C@@](O)(C(=O)CO)C[C@@H]3O[C@H]1C[C@H](N2C=CCC2)[C@H](O)[C@H](C)O1` [AN-201, 2-pyrrolinyl-doxorubicin], the “Activity in the cellular level relative to doxorubicin” value in data set [1] is recorded as 300-1000 folds. Also, in the data set on transplanted tumor, the “Anticancer activity at the maximal tolerance dose” value is “the anticancer activity was not observed at the maximal tolerance dose”.

The term inhibition denotes the share of the control response that was lost under treatment. For the compound `COc1cccc2c1C(=O)c1c(O)c3c(c(O)c1C2=O)C[C@@](O)(C(=O)CO)C[C@@H]3O[C@H]1C[C@H](N)[C@H](O)[C@H](C)O1` [Doxorubicin, doxorubicin, reference compound], the inhibition at 1 µM in the data set with Lovo cells (Homo sapiens, read-out: Growth Inhibition Rate (%)) came out at 50.4%. Further, the EC50 in data set [2] (Homo sapiens, MCF7) amounted to 1200 nM; with HCT-8 cell (Homo sapiens, HCT-8), 900 nM; in the data set with HEPG-2 (Homo sapiens, HepG2), 2000 nM; in the data set with A549 cell (Homo sapiens, A549), 660 nM. Besides, the “Maximal tolerance dose (MTD)” value with Kunming white mice [3] was 8 to 12 mg/kg.

For orientation: IC50 means the concentration at which inhibition is half-maximal. Read a low IC50 as greater potency. As for `COc1cccc2c1C(=O)c1c(O)c3c(c(O)c1C2=O)C[C@@](O)(C(=O)CO)C[C@@H]3O[C@H]1C[C@H](n2cccc2)[C@H](O)[C@H](C)O1` [Example 1, 3′-pyrrolyldoxorubicin], the “Growth Inhibition Rate (%)” value in the data set with Lovo cells (1 µM) stood at 80.62%. The “A570 nm-OD Values” worked out at 1.629 ± 0.257 in [2] (setting [5]); 1.744 ± 0.176 in data set [2] (setting [6]); 1.443 ± 0.079 in data set [2] (setting [7]); 1.238 ± 0.072 in [2] (setting [8]); 0.883 ± 0.041 in data set [2] (setting [9]); 0.703 ± 0.058 in data set [2] (setting [10]). For the same compound, the “A570 nm-OD Values” in data set [2] (setting [11]) was 0.461 ± 0.026; in data set [2] (setting [12]), 0.302 ± 0.030; in data set [2] (setting [13]), 0.320 ± 0.030; in data set [2] (setting [14]), 0.289 ± 0.019. Further, the “Inhibition Rate (%)” value in [2] (setting [5]) is given as 4.27%; in data set [2] (setting [6]), −2.49%; in [2] (setting [7]), 15.17%; in data set [2] (setting [8]), 27.22%; in [2] (setting [9]), 48.09%; in data set [2] (setting [10]), 58.68%. For the same compound, the “Inhibition Rate (%)” value in [2] (setting [11]) was found to be 72.89%; in [2] (setting [12]), 82.26%; in [2] (setting [13]) it was 81.18%; in data set [2] (setting [14]), 83.03%. In addition, the EC50 is 210 nM in data set [2] (MCF-7 cell), 490 nM in the data set with HCT-8 cell (HCT-8 cell), 810 nM in the data set with HEPG-2 (HEPG-2) and 61 nM in the data set on A549 cell (A549 cell). Besides, the “Imax (maximum inhibition rate)” value in data set [2] (MCF-7 human breast cancer cells) is recorded as “Imax = 83.03%”. The same compound came in with an IC50 in data set [2] (MCF-7 human breast cancer cells, fitted inhibition curve) of 0.06023 ± 0.01528 µg/mL (≈ 0.101 µM). The “Maximal tolerance dose (MTD) relative to doxorubicin” value in the data set with Kunming white mice [4] (mice, compared with doxorubicin MTD 8-12 mg/kg) is on record as “at least more than five folds higher than that of doxorubicin”. The “Abnormality on the body surface” value in the data set with Kunming white mice [4] (setting [15]) and with Kunming white mice [4] (setting [16]) was “no obvious abnormality on the body surface was observed” each time. In addition, the “Change of body weight” value was “The body weight of each mouse increased slowly after administration” with Kunming white mice [4] (setting [15]) and “The body weight of each mouse increased after administration” with Kunming white mice [4] (setting [16]). The Mortality rate entry is listed as “Death was not found” in the data set on Kunming white mice [4] (setting [15]); “Death was not found” in the data set with Kunming white mice [4] (single administration, 20 mg/kg and 30 mg/kg, observed 14 days).

For the compound `COc1cccc2c1C(=O)c1c(O)c3c(c(O)c1C2=O)C[C@@](O)(C(=O)CO)C[C@@H]3O[C@H]1C[C@H](n2cccc2)[C@H](O)[C@H](C)O1` [Example 5, 3′-pyrrolyldoxorubicin], in the data set with Lovo cells, the “Growth Inhibition Rate (%)” value was 67.25%.

Regarding `COc1cccc2c1C(=O)c1c(O)c3c(c(O)c1C2=O)CC(O)(C(=O)CO)CC3OC1CC(N2C(=O)CCC2=O)C(O)C(C)O1` (stereo not shown) [Example 7, 3′-succinimidodoxorubicin], the “Growth Inhibition Rate (%)” value in the data set with Lovo cells is on record as 83.31%.

In the case of `COc1cccc2c1C(=O)c1c(O)c3c(c(O)c1C2=O)CC(O)(C(=O)COC(=O)CCC(=O)O)CC3OC1CC(n2cccc2)C(O)C(C)O1` (stereo not shown) [Example 13, 3′-pyrrolyldoxorubicin-14-oxo-hydrogen succinate], in the data set on Lovo cells, the “Growth Inhibition Rate (%)” value worked out at 76.05%. Moreover, the EC50 stood at 930 nM in [2] (MCF-7 cell), 1870 nM in the data set on HCT-8 cell (HCT-8 cell), 150 nM in the data set on HEPG-2 (HEPG-2) and 2360 nM in the data set on A549 cell (A549 cell).

`COc1cccc2c1C(=O)c1c(O)c3c(c(O)c1C2=O)CC(O)(C(=O)COC(=O)C(C)N)CC3OC1CC(n2cccc2)C(O)C(C)O1.Cl` (stereo not shown) [Example 38, 3′-pyrrolyldoxorubicin-14-oxo-alaninate hydrochloride]: in the data set with Lovo cells, the “Growth Inhibition Rate (%)” value is listed as 78.44%. Besides, the EC50 worked out at 870 nM in [2] (MCF-7 cell), 590 nM with HCT-8 cell (HCT-8 cell), 1060 nM with HEPG-2 (HEPG-2) and 230 nM in the data set on A549 cell (A549 cell).

The record behind these values is patent US9115165B2, “Tetracyclic anthraquinone antibiotic derivatives with high activity, process for preparing the same and use thereof” (Tianjin Hemay Bio-Tech Co., Ltd., priority 2008, dated 2015).
